The source of these data is PubChem BioAssay AID1259408 (Genetic Toxicology Data Bank (GENE-TOX), 2018).

In the data set the test system is GENE-TOX genotoxicity assays, various organisms and cells. Kind of data set: GENE-TOX mutagenicity studies. The settings on record: for call: Assay Type: In vivo carcinogenicity studies. The text has this: GENE-TOX provides genetic toxicology (mutagenicity) test data from expert peer review of open scientific literature for more than 3,000 chemicals from the United States Environmental Protection Agency (EPA). GENE-TOX was established to select assay systems for evaluation, review data in the scientific literature, and recommend proper testing protocols and evaluation procedures for these systems.
GENE-TOX covers the years 1991 - 1998. It is no longer updated.
This is an archive assay for GENE-TOX mutagenicity studies.

[1] abbreviates: Species/Cell Type: Drosophila melanogaster, Assay Type: Sex-linked recessive lethal gene mutation, Assay Code: SRL+, Evaluation Type: Evaluation A (Pre-1980).
Where [2] appears, read: Species/Cell Type: Salmonella typhimurium (one or more of the five standard strains: TA98, TA100, TA1535, TA1537, and TA1538), Assay Type: Histidine reverse gene mutation, Ames assay, Assay Code: SALT, Evaluation Type: Evaluation A (Pre-1980).
Where [3] appears, read: Species/Cell Type: Nonhuman, Assay Code: CCG+, Evaluation Type: Evaluation A (Pre-1980).
Setting [4] is: Species/Cell Type: Nonhuman, Assay Type: Sister-chromatid exchange (SCE) in vitro, Assay Code: SC2+D, Dose Response: With dose response, Evaluation Type: Evaluation B (Post-1980).
Where [5] appears, read: Species/Cell Type: Chinese hamster lung (V79) cells, Assay Type: Forward gene mutation at the HPRT or ouabain locus, Assay Code: V79+, Evaluation Type: Evaluation A (Pre-1980).
Where [6] appears, read: Species/Cell Type: Nonhuman, Assay Code: CCGT, Evaluation Type: Evaluation A (Pre-1980).
Where [7] appears, read: Species/Cell Type: Salmonella typhimurium (one or more of the five standard strains: TA98, TA100, TA1535, TA1537, and TA1538), Assay Type: Histidine reverse gene mutation, Ames assay, Assay Code: SAL+, Evaluation Type: Evaluation A (Pre-1980).
The mark [8] stands for this setting: Species/Cell Type: Salmonella typhimurium (one or more of the five standard strains: TA98, TA100, TA1535, TA1537, and TA1538), Assay Type: Histidine reverse gene mutation, Ames assay, Assay Code: SAL+*, Activation: With metabolic activation, Evaluation Type: Evaluation A (Pre-1980).
[9] abbreviates: Species/Cell Type: Salmonella typhimurium, Assay Type: Forward and reverse gene mutation, host-mediated assay, Assay Code: HMA-, Evaluation Type: Evaluation A (Pre-1980).

Each structure is given as a SMILES string. Active and inactive are the calls of the source. How the calls were made is not given here.

Take `O=NN1CCC(Cl)C(Cl)C1` (configuration not stated): the mutagenic call reads like this: (Species/Cell Type: Drosophila melanogaster, Assay Type: Aneuploidy, partial sex chromosome loss, chromosome aberrations, Assay Code: DAPT, Evaluation Type: Evaluation A (Pre-1980)) “no conclusion”; (Species/Cell Type: Drosophila melanogaster, Assay Type: Aneuploidy, whole sex chromosome loss, chromosome aberrations, Assay Code: DACT, Evaluation Type: Evaluation A (Pre-1980)) “no conclusion”; under setting [1], “active; positive”.
As to `CCCCCc1cc(O)c2c(c1)OC(C)(C)[C@@H]1CCC(C)=C[C@@H]21`, the mutagenic call is, setting by setting: (Species/Cell Type: Fischer rat embryo (RLV/1706) cells, Assay Type: Cell transformation, viral enhanced, Assay Code: CTR+, Evaluation Type: Evaluation A (Pre-1980)) “active; positive”; (Species/Cell Type: Human diploid fibroblasts, Assay Type: Unscheduled DNA synthesis (UDS) in vitro, DNA effects, Assay Code: UDH-, Evaluation Type: Evaluation A (Pre-1980)) “inactive; negative”; (Species/Cell Type: Human lymphocytes or leukocytes, Assay Type: Chromosome aberrations in vivo, Assay Code: CY8-, Evaluation Type: Evaluation A (Pre-1980)) “inactive; negative”; (Species/Cell Type: Human lymphocytes, Assay Type: Sister-chromatid exchange (SCE) in vivo, Assay Code: SCY+, Evaluation Type: Evaluation B (Post-1980)) “active; positive”; (Species/Cell Type: Human, Assay Type: Sister-chromatid exchange (SCE) in vitro, Assay Code: SC1-, Evaluation Type: Evaluation A (Pre-1980)) “inactive; negative”; (Species/Cell Type: Mammalian polychromatic erythrocytes, Assay Type: Micronucleus test, chromosome aberrations, Assay Code: MNT+, Evaluation Type: Evaluation B (Post-1980)) “active; positive”. The mutagenic call is, setting by setting: (Species/Cell Type: Mammalian polychromatic erythrocytes, Assay Type: Micronucleus test, chromosome aberrations, Assay Code: MNTT, Evaluation Type: Evaluation A (Pre-1980)) “no conclusion”; (Species/Cell Type: Mouse, Sex: Male, Assay Type: Sperm morphology, Assay Code: SPI+, Evaluation Type: Evaluation A (Pre-1980)) “active; positive”.
Consider `CS(=O)(=O)OC[C@H](O)[C@@H](O)COS(C)(=O)=O`, for which the mutagenic call is, setting by setting: (Species/Cell Type: Allium cepa, Assay Type: Chromosome aberrations, Assay Code: ALC+D, Dose Response: With dose response, Evaluation Type: Evaluation A (Pre-1980)) “active; positive”; (Species/Cell Type: Arabidopsis species, Assay Type: Gene mutation, Assay Code: ARM+, Evaluation Type: Evaluation A (Pre-1980)) “active; positive”; (Species/Cell Type: Hordeum vulgare (barley), Assay Type: Chromosome aberrations, Assay Code: HOC+D, Dose Response: With dose response, Evaluation Type: Evaluation A (Pre-1980)) “active; positive”; (Species/Cell Type: Vicia faba, Assay Type: Chromosome aberrations, Assay Code: VIC+, Evaluation Type: Evaluation A (Pre-1980)) “active; positive”.
For the molecule `Oc1cc2cccc3ccc4cc5ccccc5c1c4c32`, the mutagenic call was “inactive; negative” (Species/Cell Type: Chinese hamster lung (V79) cells, Assay Type: Forward gene mutation at the HPRT or ouabain locus, Assay Code: V79-, Evaluation Type: Evaluation A (Pre-1980)) and “no conclusion” under setting [2]. Moreover, under “Species/Cell Type: Nonhuman, Assay Code: CCG+L, Evaluation Type: Evaluation A (Pre-1980)”, the call was “active; positive”.
Take `C1COCCN1`: the mutagenic call (Species/Cell Type: Salmonella typhimurium, Assay Type: Forward and reverse gene mutation, host-mediated assay, Assay Code: HMA+, Evaluation Type: Evaluation A (Pre-1980)) is “active; positive”.
Regarding `C[C@@H]1CCCCN1N=O`, the call under setting [3] is “active; positive”.
With `CCOP(=O)(OCC)Oc1ccc([N+](=O)[O-])cc1`, the mutagenic call under setting [4] was “active; positive”.
For the molecule `c1ccc2c3c4c(ccc5cccc(c54)[C@H]4O[C@@H]34)cc2c1`, the mutagenic call under setting [5] is “active; positive” and the mutagenic call under setting [7] was “active; positive”. In addition, the call under setting [6] was “no conclusion”.
As to `C[C@]12CC[C@@H]3c4ccc(O)cc4CC[C@H]3[C@@H]1CCC2=O`, the call under setting [3] was “active; positive”.
With `CCCCCCN(N=O)/C(N)=N/[N+](=O)[O-]`, the mutagenic call under setting [2] is on record as “no conclusion”.
Regarding `CCOC(=O)COc1ccc(Br)cc1CSC(=N)N`, for the setting “Species/Cell Type: Saccharomyces cerevisiae, Assay Type: Reverse gene mutation, Assay Code: YERT, Evaluation Type: Evaluation A (Pre-1980)”, the mutagenic call is “no conclusion”.
As for `CCN(CCCl)CCCNc1c2ccccc2nc2ccccc12`, where the note is “Species/Cell Type: Chinese hamster ovary (CHO) cells, Assay Type: Forward gene mutation at the HPRT locus, Assay Code: CHO+, Evaluation Type: Evaluation B (Post-1980)”, the mutagenic call is “active; positive”.
For `N[C@@H]1CONC1=O`, where the note is “Species/Cell Type: Escherichia coli polA (W3119 vs P3478), Assay Type: Rec-assay, DNA effects (bacterial DNA repair), Assay Code: RE1-, Evaluation Type: Evaluation A (Pre-1980)”, the mutagenic call was “inactive; negative”.
`COc1ccccc1N1CCN(c2ccc([N+](=O)[O-])c3no[n+]([O-])c23)CC1`: under setting [7], the mutagenic call is “active; positive”.
Regarding `Nc1cccc2cc3ccccc3cc12`, the mutagenic call (Species/Cell Type: Escherichia coli polA (W3119 vs P3478), Assay Type: Rec-assay, DNA effects (bacterial DNA repair), Assay Code: RE1T, Evaluation Type: Evaluation A (Pre-1980)) is “no conclusion”; the mutagenic call (Species/Cell Type: Fischer rat embryo (RLV/1706) cells, Assay Type: Cell transformation, viral enhanced, Assay Code: CTR-, Evaluation Type: Evaluation A (Pre-1980)) was “inactive; negative”; the mutagenic call (Species/Cell Type: Saccharomyces cerevisiae, Assay Type: Mitotic recombination or gene conversion, Assay Code: YEH+/-*, Activation: With metabolic activation, Evaluation Type: Evaluation A (Pre-1980)) is “inactive; positive without activation, negative with activation”; the mutagenic call under setting [8] was “active; positive”; the mutagenic call under setting [9] was “inactive; negative”; the mutagenic call (Species/Cell Type: Syrian hamster embryo (SHE) cells, Assay Type: Cell transformation, clonal assay, Assay Code: CTC-, Evaluation Type: Evaluation A (Pre-1980)) is “inactive; negative”.
As for `COc1cc2c(c3oc(=O)c4c(c13)C(O)CC4O)[C@@H]1C=CO[C@@H]1O2` (some centres not stated), under setting [8], the mutagenic call is “active; positive”.
For `CCC1(c2ccccc2)C(=O)NC(=O)N(C(=O)c2ccccc2)C1=O` (configuration not stated), the mutagenic call is “no conclusion” (Species/Cell Type: Rodents, Sex: Male, Assay Type: Dominant lethal test, Assay Code: DLTT, Evaluation Type: Evaluation A (Pre-1980)) and “inactive; negative” under setting [9].
Consider `O=NN(CCCl)C(=O)NCCCl`, for which the mutagenic call reads like this: under setting [5], “active; positive”; under setting [1], “active; positive”; (Species/Cell Type: Human lymphocytes, Assay Type: Sister-chromatid exchange (SCE) in vitro, Assay Code: SCL+, Evaluation Type: Evaluation B (Post-1980)) “active; positive”; (Species/Cell Type: Human, Assay Type: Sister-chromatid exchange (SCE) in vitro, Assay Code: SC1+D, Dose Response: With dose response, Evaluation Type: Evaluation B (Post-1980)) “active; positive”; under setting [4], “active; positive”; (Species/Cell Type: Nonhuman, Assay Type: Sister-chromatid exchange (SCE) in vivo, Assay Code: SC3+D, Dose Response: With dose response, Evaluation Type: Evaluation B (Post-1980)) “active; positive”. Also, the mutagenic call is, setting by setting: (Species/Cell Type: Saccharomyces cerevisiae, Assay Type: Mitotic recombination or gene conversion, Assay Code: YEC+, Evaluation Type: Evaluation A (Pre-1980)) “active; positive”; under setting [7], “active; positive”. Also, under setting [3], the call is “active; positive”.
In the case of `CC(C)NCC(O)c1ccc2ccccc2c1` (configuration not stated), the mutagenic call (Species/Cell Type: Human diploid fibroblasts, Assay Type: Unscheduled DNA synthesis (UDS) in vitro, DNA effects, Assay Code: UDHT, Evaluation Type: Evaluation A (Pre-1980)) was “no conclusion”; the mutagenic call (Species/Cell Type: Mammalian polychromatic erythrocytes, Assay Type: Micronucleus test, chromosome aberrations, Assay Code: MNTT, Evaluation Type: Evaluation B (Post-1980)) is listed as “no conclusion”; the mutagenic call (Species/Cell Type: Mouse, Sex: Male, Assay Type: Sperm morphology, Assay Code: SPI-, Evaluation Type: Evaluation A (Pre-1980)) was “inactive; negative”.
Take `COc1cc2c(c3oc(=O)c4c(c13)[C@@H](O)CC4=O)[C@@H]1C=CO[C@@H]1O2`: under setting [8], the mutagenic call was “active; positive”.
Consider `CCCCN1CC1`, for which, for the setting “Species/Cell Type: Schizosaccharomyces pombe, Assay Type: Reverse gene mutation, Assay Code: YEZ+, Evaluation Type: Evaluation A (Pre-1980)”, the mutagenic call is “active; positive”.
In the case of `Cc1c2c(c(C)c3c1ccc1ccccc13)[C@H](O)[C@@H](O)C=C2`, the call under setting [6] is “no conclusion”.
Take `Cc1c2ccccc2c(C)c2c1c(O)c(O)c1ccccc12`: for the setting “Species/Cell Type: Chinese hamster lung (V79) cells, Assay Type: Forward gene mutation at the HPRT or ouabain locus, Assay Code: V79-*, Activation: With metabolic activation, Evaluation Type: Evaluation A (Pre-1980)”, the mutagenic call was “inactive; negative”. Under setting [6], the call is “no conclusion”.
Take `Cc1ccc2cc3ccc4c(F)cccc4c3cc2c1`: the mutagenic call (Species/Cell Type: Mouse prostate cells, Assay Type: Cell transformation, Assay Code: CTM+, Evaluation Type: Evaluation A (Pre-1980)) was “active; positive”.
